Experiments:
Assay in all cases: relative viability (nuclei count vs DMSO), 5 days (fraction); higher = more cells survive
[1] = compound: CN(C/C=C/C1=CC=C(C=C1)Cl)CC2=CC=CC=C2N(CCO)S(=O)(=O)C3=CC=C(C=C3)OC [KN-93] + CC(=O)c1c(C)c2cnc(Nc3ccc(N4CCNCC4)cn3)nc2n(C2CCCC2)c1=O [Palbociclib] (partner 0.5 µM)
In short: (§1)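 Relative viability equals treated-well nuclei counts divided by vehicle-well nuclei counts. Counts came from 4× images of lung cancer cell lines grown in 1536-well plates for 5 days after pin-tool dosing on the day after seeding. Dosing used one drug alone or a fixed anchor-drug dose plus five library-drug doses (not always all listed) in √10 steps, and values are medians of duplicate plates.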

[2] = compound: CN(C/C=C/C1=CC=C(C=C1)Cl)CC2=CC=CC=C2N(CCO)S(=O)(=O)C3=CC=C(C=C3)OC [KN-93] + CC(C)C[C@H](NC(=O)[C@H](Cc1ccccc1)NC(=O)c1cnccn1)B(O)O [Bortezomib] (partner 0.002 µM)
In short: as §1

[3] = compound: CN(C/C=C/C1=CC=C(C=C1)Cl)CC2=CC=CC=C2N(CCO)S(=O)(=O)C3=CC=C(C=C3)OC [KN-93] + COc1cc2c(Oc3ccc(NC(=O)C4(C(=O)Nc5ccc(F)cc5)CC4)cc3F)ccnc2cc1OCCCN1CCOCC1 [Foretinib] (partner 0.25 µM)
In short: as §1

[4] = compound: CN(C/C=C/C1=CC=C(C=C1)Cl)CC2=CC=CC=C2N(CCO)S(=O)(=O)C3=CC=C(C=C3)OC [KN-93] + Nc1nc2[nH]cc(CCc3ccc(C(=O)N[C@@H](CCC(=O)O)C(=O)O)cc3)c2c(=O)[nH]1 [Pemetrexed] (partner 0.2 µM)
In short: as §1

[5] = compound: CN(C/C=C/C1=CC=C(C=C1)Cl)CC2=CC=CC=C2N(CCO)S(=O)(=O)C3=CC=C(C=C3)OC [KN-93] + Nc1ncn([C@H]2C[C@H](O)[C@@H](CO)O2)c(=O)n1 [Decitabine] (partner 2 µM)
In short: as §1

Cell Line | relative viability ([1]; first compound 0.08 µM) | relative viability ([1]; first compound 0.253 µM) | relative viability ([1]; first compound 2.53 µM) | relative viability ([1]; first compound 8 µM) | relative viability ([2]; first compound 0.08 µM) | relative viability ([2]; first compound 0.253 µM) | relative viability ([2]; first compound 2.53 µM) | relative viability ([2]; first compound 8 µM) | relative viability ([3]; first compound 0.08 µM) | relative viability ([3]; first compound 0.253 µM) | relative viability ([3]; first compound 2.53 µM) | relative viability ([3]; first compound 8 µM) | relative viability ([4]; first compound 0.08 µM) | relative viability ([4]; first compound 0.253 µM) | relative viability ([4]; first compound 2.53 µM) | relative viability ([4]; first compound 8 µM) | relative viability ([5]; first compound 0.08 µM) | relative viability ([5]; first compound 0.253 µM) | relative viability ([5]; first compound 2.53 µM) | relative viability ([5]; first compound 8 µM)
LC-2-ad | 0.491 | 0.517 | 0.529 | 0.452 | 0.975 | 0.998 | 1.22 | 0.446 | 0.992 | 1.01 | 0.915 | 0.699 | 0.272 | 0.272 | 0.298 | 0.295 | 0.775 | 0.772 | 0.911 | 0.702
LCLC-97TM1 | 0.293 | 0.227 | 0.207 | 0.158 | 0.636 | 0.576 | 0.906 | 0.466 | 0.955 | 0.978 | 0.895 | 0.74 | 0.199 | 0.165 | 0.179 | 0.145 | 0.288 | 0.208 | 0.279 | 0.211
LCLC-103H | 0.472 | 0.458 | 0.49 | 0.518 | 0.968 | 1.07 | 1.16 | 0.949 | 0.901 | 1.01 | 0.799 | 0.536 | 0.455 | 0.443 | 0.515 | 0.475 | 0.657 | 0.69 | 0.673 | 0.518
LOU-NH91 | 0.542 | 0.562 | 0.56 | 0.512 | 0.534 | 0.456 | 0.48 | 0.392 | 0.963 | 0.886 | 1.01 | 0.885 | 0.356 | 0.325 | 0.445 | 0.439 | 0.833 | 0.769 | 0.795 | 0.786
LU99A | 0.455 | 0.457 | 0.397 | 0.371 | 1.08 | 1.28 | 1.33 | 0.93 | 0.884 | 0.896 | 0.817 | 0.676 | 0.183 | 0.183 | 0.189 | 0.222 | 0.777 | 0.893 | 0.859 | 0.711
LXF-289 | 0.512 | 0.672 | 0.628 | 0.552 | 0.853 | 1.12 | 1.12 | 0.833 | 0.982 | 1.01 | 0.944 | 0.805 | 0.925 | 0.926 | 0.977 | 0.684 | 0.391 | 0.413 | 0.416 | 0.388
NCI-H23 | 0.516 | 0.493 | 0.618 | 0.418 | 0.878 | 1.07 | 1.14 | 0.893 | 0.935 | 1.13 | 1.1 | 0.666 | 0.685 | 0.866 | 0.883 | 0.502 | 0.849 | 0.306 | 0.296 | 0.288
NCI-H322M | 0.481 | 0.503 | 0.494 | 0.445 | 1.36 | 1.21 | 1.29 | 1.14 | 0.959 | 0.933 | 0.984 | 0.762 | 0.641 | 0.628 | 0.701 | 0.614 | 0.733 | 0.725 | 0.69 | 0.699
NCI-H441 | – | 0.171 | 0.185 | 0.147 | – | 0.672 | 0.365 | 0.22 | 1.08 | 1.23 | 1.2 | 0.73 | – | 0.242 | 0.293 | 0.268 | – | 0.203 | 0.261 | 0.197
NCI-H460 | 0.167 | 0.0991 | 0.147 | 0.205 | 0.813 | 1.93 | – | 0.717 | 0.715 | 1.06 | 1.02 | 0.591 | 0.0661 | 0.0588 | 0.0591 | 0.0687 | 0.282 | 0.409 | 0.579 | 0.46
NCI-H520 | 0.219 | 0.218 | 0.251 | 0.201 | – | 0.883 | 0.914 | 0.511 | 0.885 | 0.952 | 0.768 | 0.711 | 0.72 | 0.738 | 0.658 | 0.422 | 0.596 | 0.599 | 0.538 | 0.458
NCI-H647 | 0.346 | 0.364 | 0.349 | 0.473 | 0.712 | 1.16 | 1.63 | 0.986 | 1.11 | 1.37 | 1.54 | 1.07 | 0.176 | 0.181 | 0.159 | 0.174 | 0.373 | 0.487 | 0.444 | 0.409
NCI-H650 | 0.314 | 0.307 | 0.327 | 0.271 | 0.959 | 0.915 | 1.25 | 0.454 | 1.11 | 0.972 | 0.968 | 0.705 | 1.02 | 0.993 | 1.04 | 0.788 | 0.325 | 0.272 | 0.302 | 0.311
NCI-H661 | 0.439 | 0.409 | 0.308 | 0.308 | 0.735 | 0.901 | 0.713 | 0.665 | 0.942 | 1.13 | 0.976 | 0.481 | 0.89 | 1.15 | 0.753 | 0.504 | 0.539 | 0.527 | 0.543 | 0.378
NCI-H838 | 0.222 | 0.182 | 0.216 | 0.212 | 0.735 | 0.919 | 1.16 | 0.796 | 0.946 | 0.977 | 1.13 | 0.905 | 0.258 | 0.278 | 0.25 | 0.214 | 0.436 | 0.455 | 0.487 | 0.427
NCI-H1355 | 0.427 | 0.342 | 0.436 | 0.332 | 1.11 | 1.11 | 1.3 | 0.895 | 0.879 | 0.984 | 1.03 | 0.868 | 1.11 | 0.918 | 1.27 | 0.972 | 0.367 | 0.298 | 0.317 | 0.315
